Values joined by “and” are separate entries in the source; they are usually repeats but may differ in a detail not shown here. Identical values can stand only once.
Conditions: Liquid, Transpiration method

CCOC(=O)C(C)O (racemic) [DL-ethyl lactate]
Conditions | vapor or sublimation pressure
274.6 K | 0.0432 kPa
276.6 K | 0.0506 kPa
279.6 K | 0.0659 kPa
281.4 K | 0.0743 kPa
283.6 K | 0.0901 kPa
284.6 K | 0.095 kPa
285.8 K | 0.1032 kPa
287.6 K | 0.1266 kPa and 0.1265 kPa
288.4 K | 0.1302 kPa
290.2 K | 0.1492 kPa
290.3 K | 0.1456 kPa
291.1 K | 0.162 kPa
293.5 K | 0.1923 kPa
296.4 K | 0.2396 kPa
298.5 K | 0.2828 kPa
301.5 K | 0.3655 kPa
302.5 K | 0.3751 kPa
304.5 K | 0.4491 kPa
305.3 K | 0.4793 kPa
307.2 K | 0.5251 kPa
308.2 K | 0.5766 kPa
310.1 K | 0.6332 kPa and 0.6327 kPa
311.3 K | 0.6892 kPa

CCCOC(=O)C(C)O (stereo not given) [propyl 2-hydroxypropanoate]
Conditions | vapor or sublimation pressure
273.5 K | 0.0152 kPa
274.6 K | 0.0171 kPa
276.2 K | 0.019 kPa
277.7 K | 0.0222 kPa
279.9 K | 0.0274 kPa
282.1 K | 0.0332 kPa
283.3 K | 0.0359 kPa
286.2 K | 0.0489 kPa and 0.048 kPa
287.8 K | 0.055 kPa
290.3 K | 0.0664 kPa
292.3 K | 0.0793 kPa
294.3 K | 0.09 kPa
298.2 K | 0.1194 kPa
299.2 K | 0.1376 kPa and 0.1392 kPa
301.2 K | 0.1565 kPa
301.4 K | 0.1625 kPa
303.3 K | 0.1866 kPa
304.2 K | 0.1915 kPa
305.3 K | 0.2068 kPa
307.9 K | 0.268 kPa
308.1 K | 0.256 kPa
310.3 K | 0.3053 kPa
312.1 K | 0.3377 kPa
313.4 K | 0.3713 kPa
313.6 K | 0.3614 kPa
315.4 K | 0.4264 kPa
316 K | 0.4342 kPa
317 K | 0.4541 kPa
317.4 K | 0.4789 kPa
319.4 K | 0.5467 kPa
320 K | 0.5661 kPa
321.4 K | 0.6113 kPa
323 K | 0.6633 kPa
323.4 K | 0.7043 kPa
325.4 K | 0.8342 kPa
327.3 K | 0.9235 kPa
330.3 K | 1.079 kPa

CCCCCOC(=O)C(C)O (stereo not given) [pentyl 2-hydroxypropanoate]
Conditions | vapor or sublimation pressure [kPa]
303.4 K | 0.026
305.3 K | 0.0299
307.3 K | 0.038
309.3 K | 0.0421
311.4 K | 0.0517
313.3 K | 0.0565
315.4 K | 0.0714
317.4 K | 0.0833
319.4 K | 0.0946
321.4 K | 0.1069
323.4 K | 0.1269
325.4 K | 0.1418
327.4 K | 0.1665
329.4 K | 0.1855
331.3 K | 0.2174
333.3 K | 0.2476
335.3 K | 0.2794
337.3 K | 0.3145
339.3 K | 0.3534
341.3 K | 0.4164
343.2 K | 0.4684

CC(C)OC(=O)[C@H](C)O [isopropyl (S)-2-hydroxypropionate]
Conditions | vapor or sublimation pressure [kPa]
283.4 K | 0.0862
288.3 K | 0.1239
293.3 K | 0.1774
298.3 K | 0.2401
303.2 K | 0.3239
306.8 K | 0.4055

CCCCOC(=O)C(C)O (stereo not given) [butyl 2-hydroxypropanoate]
Conditions | vapor or sublimation pressure [kPa]
273.6 K | 0.00576
274.1 K | 0.00627
276.6 K | 0.00823
277.2 K | 0.00868
279.2 K | 0.00996
280.7 K | 0.0112
281.8 K | 0.0133
283.2 K | 0.0141
285.4 K | 0.0178
287.3 K | 0.0215
290.3 K | 0.0272
291.8 K | 0.0324
293.3 K | 0.0375
296.2 K | 0.0442
299.2 K | 0.0601
302.2 K | 0.0712
305.1 K | 0.0952
308.1 K | 0.1148
308.5 K | 0.1253
311 K | 0.1483
313 K | 0.1639
314.5 K | 0.1944
317 K | 0.2271
318.9 K | 0.2521
322.9 K | 0.3526

CCOC(=O)[C@@H](C)O [ethyl D-lactate]
Conditions | vapor or sublimation pressure
274.4 K | 0.0419 kPa
276.4 K | 0.0495 kPa
278.2 K | 0.0568 kPa
280.3 K | 0.0665 kPa
282.3 K | 0.0765 kPa
283.2 K | 0.0834 kPa
285.4 K | 0.0995 kPa
286.2 K | 0.1081 kPa
289.2 K | 0.1358 kPa
291.3 K | 0.1583 kPa
293.2 K | 0.1868 kPa
295.2 K | 0.2114 kPa
297.3 K | 0.2551 kPa
298.4 K | 0.2762 kPa and 0.2718 kPa
299.2 K | 0.2886 kPa
301.3 K | 0.3466 kPa
303.2 K | 0.3937 kPa
305.2 K | 0.4603 kPa
306.2 K | 0.479 kPa
307.3 K | 0.5225 kPa
308.2 K | 0.5581 kPa
308.3 K | 0.5768 kPa
310.3 K | 0.6462 kPa
311.3 K | 0.7011 kPa
313.2 K | 0.7624 kPa
314.2 K | 0.8127 kPa
316.3 K | 0.9517 kPa
318.2 K | 1.048 kPa

— the NIST ThermoML archive (doi:10.1016/j.jct.2018.07.029)
